The experiment concerns the target mTOR (Homo sapiens, UniProt P42345). Description: in vitro mTOR kinase activity assay (inhibition curve, Fig. 5e). It counts as biochemical.

As to `COc1ncc(-c2ccc3ncnc(Nc4cnn(CCO)c4)c3c2)cc1NS(=O)(=O)c1ccc(F)cc1F` [DHW-208, 2,4-difluoro-N-(5-(4-((1-(2-hydroxyethyl)-1H-pyrazol-4-yl)amino)quinazolin-6-yl)-2-methoxypyridin-3-yl)benzenesulfonamide], the IC50 was 3 nM. This lies in the single-digit nanomolar range.

The values above are taken from paper PMC7327080, “A novel 4-aminoquinazoline derivative, DHW-208, suppresses the growth of human breast cancer cells by targeting the PI3K/AKT/mTOR pathway” (Cell Death & Disease, 2020).
